The values below come from patent US20180363044A1, “COMPOSITIONS AND METHODS FOR IMPROVING THE THERMAL STABILITY OF NUCLEIC ACID AMPLIFICATION REAGENTS” (Roche Molecular Systems, Inc., priority 2017, published 2018).

The data set can be described thus: Stability study: heat stress storage, UPLC analysis of degradation. In kind it is physicochemical. As for the experimental part: Samples containing either 1 mM deoxyadenosine triphosphate (dATP), or 1 mM deoxyadenosine tetraphosphate (dA4P) or 1 mM dATP+1 mM dA4P were suspended in a buffer containing 40% DMSO/0.75M KOAc were stored for 18 hours at either 65° C. The samples were then run in a UPLC column and analyzed for degradation of the starting products.

Regarding `Nc1ncnc2c1ncn2[C@H]1C[C@H](O)[C@@H](COP(=O)(O)OP(=O)(O)OP(=O)(O)O)O1` [dATP, deoxyadenosine triphosphate], the active substrate remaining (buffer, 18 h, 1 mM) turned out to be 51%.

For the molecule deoxyadenosine tetraphosphate [dA4P], the active substrate remaining result (1 mM in buffer containing 40% DMSO/0.75M KOAc, stored 18 hours at 65° C., UPLC) is recorded as “approximately 70%”.
